Measured values: ChEMBL document CHEMBL4811285, “Effects of N-terminus modified Hx-amides on DNA binding affinity, sequence specificity, cellular uptake, and gene expression” (Bioorg Med Chem Lett, 2021)
Activity calls are given as the source filed them. The rule behind the calls is not given here.

What was measured:
TOP2A promoter [1] = assay: Inhibition of 5'-TACGAT-3 (unknown origin) binding to 32P-radiolabeled DNA ICB2 -binding site (unknown origin) assessed as disruption NF-Y/ICB2 interaction using NIH3T3 cell nuclear protein extract incubated for 1 hr by electrophoretic mobility shift assay
[2] = Drug uptake in mouse NIH3T3 cells assessed as fluorescence in mitochondria upto 20 uM incubated for 24 hrs under dark condition by mito-tracker red dye based confocal microscopic analysis; assay type: ADME; details: nih3t3, 24 h
[3] = Induction of TOP2A mRNA expression in human A549 cells assessed as fold increase in mRNA expression at 2 uM incubated for 18 hrs by real time PCR analysis; assay type: cell-based
[4] = Drug uptake in mouse NIH3T3 cells assessed as increase in fluorescence intensity at 20 uM after 24 hr by confocal microscopic analysis relative to control; assay type: ADME, cell-based; details: nih3t3, 24 h
[5] = Drug uptake in mouse NIH3T3 cells assessed as increase in fluorescence intensity at 10 uM after 24 hr by confocal microscopic analysis relative to control; assay type: ADME, cell-based; details: nih3t3, 24 h
[6] = Drug uptake in mouse NIH3T3 cells assessed as increase in fluorescence intensity at 1 uM after 24 hr by confocal microscopic analysis relative to control; assay type: ADME, cell-based; details: nih3t3, 24 h
TOP2A promoter [7] = assay: Binding affinity to 5'-AACGTT-3' DNA (unknown origin) at 1 uM by DNase1 footprinting based Autoradiogram analysis; assay type: nucleic-acid assay
TOP2A promoter [8] = assay: Binding affinity to 5'-AACGTT-3' DNA (unknown origin) at 0.5 uM by DNase1 footprinting based Autoradiogram analysis; assay type: nucleic-acid assay
DNA [9] = assay: Binding affinity to DNA at 5'-AAGCTT-3' site (unknown origin) assessed as protection of the site from enzyme digestion at 5 uM by DNase1 footprinting based autoradiogram analysis; assay type: nucleic-acid assay
DNA [10] = assay: Binding affinity to DNA at 5'-ACCGGT-3' (unknown origin) upto 25 uM by DNase1 footprinting based autoradiogram analysis; assay type: nucleic-acid assay; details: dose microM <=25
TOP2A promoter [11] = assay: Binding affinity to 5'-AACGTT-3' DNA (unknown origin) at 10 uM by DNase1 footprinting based Autoradiogram analysis; assay type: nucleic-acid assay
DNA [12] = assay: Binding affinity to DNA at 5'-AAATTT-3' (unknown origin) upto 25 uM by DNase1 footprinting based autoradiogram analysis; assay type: nucleic-acid assay; details: dose microM <=25
DNA [13] = assay: Binding affinity to DNA at 5'-ACGGGT-3' (unknown origin) upto 25 uM by DNase1 footprinting based autoradiogram analysis; assay type: nucleic-acid assay; details: dose microM <=25
DNA [14] = assay: Binding affinity to DNA at 5'-AAGCTT-3' (unknown origin) upto 25 uM by DNase1 footprinting based autoradiogram analysis; assay type: nucleic-acid assay; details: dose microM <=25
DNA [15] = assay: Binding affinity to DNA at 5'-ACGGGT-3' site (unknown origin) assessed as protection of the site from enzyme digestion at 5 uM by DNase1 footprinting based autoradiogram analysis; assay type: nucleic-acid assay
DNA [16] = assay: Binding affinity to DNA at 5'-ACTAGT-3' (unknown origin) upto 25 uM by DNase1 footprinting based autoradiogram analysis; assay type: nucleic-acid assay; details: dose microM <=25
TOP2A promoter [17] = assay: Binding affinity to 5'-AACGTT-3' DNA (unknown origin) at 3 uM by DNase1 footprinting based Autoradiogram analysis; assay type: nucleic-acid assay
DNA [18] = assay: Binding affinity to DNA at 5'-ACGCGT-3' (unknown origin) upto 25 uM by DNase1 footprinting based autoradiogram analysis; assay type: nucleic-acid assay; details: dose microM <=25
TOP2A promoter [19] = assay: Inhibition of 5'-TACGAT-3 (unknown origin) binding to 32P-radiolabeled DNA ICB2 -binding site (unknown origin) assessed as disruption NF-Y/ICB2 interaction using NIH3T3 cell nuclear protein extract at >= 1 uM incubated for 1 hr by electrophoretic mobility shift assay; details: dose microM >=1, time 1.0 hrs
TOP2A promoter [20] = assay: Binding affinity to 5'-AACGTT-3' DNA promoter TOP2A (unknown origin) at 3 uM by DNase1 footprinting based Autoradiogram analysis; assay type: nucleic-acid assay
[21] = Drug uptake in mouse NIH3T3 cells assessed as fluorescence in nucleus upto 20 uM incubated for 24 hrs under dark condition by mito-tracker dye based confocal microscopic analysis; assay type: ADME, cell-based; details: nih3t3, 24 h
TOP2A promoter [22] = assay: Inhibition of 5'-TACGAT-3 (unknown origin) binding to 32P-radiolabeled DNA ICB2 -binding site (unknown origin) assessed as disruption NF-Y/ICB2 interaction using NIH3T3 cell nuclear protein extract at >= 3 uM incubated for 1 hr by electrophoretic mobility shift assay; details: dose microM >=3, time 1.0 hrs

SMILES: CN(C)CCCNC(=O)c1cc(NC(=O)c2nc(NC(=O)c3ccc4nc(-c5ccncc5)[nH]c4c3)cn2C)cn1C
- inhibition (TOP2A promoter [1]): Dose-Dependent Effect
- Drug uptake [2]: Active
- Activity ([3]; human, a549, 18 h, 2 µM): Not Active
- Flu intensity [4]: 1.6
- Flu intensity [5]: 1.49
- Flu intensity [6]: 1.29
- Activity (TOP2A promoter [7]): Active
- Activity (TOP2A promoter [8]): Active

SMILES: COc1ccc(-c2nc3ccc(C(=O)Nc4cn(C)c(C(=O)Nc5cc(C(=O)NCCCN(C)C)n(C)c5)n4)cc3[nH]2)cc1
- Activity (DNA [9]): Active
- Activity (DNA [10]): inactive
- Activity (TOP2A promoter [11]): inactive
- Activity (DNA [12]): inactive
- Activity (DNA [13]): inactive
- Activity (DNA [14]): inactive
- Flu intensity [4]: 32.03
- Activity (DNA [15]): Active
- Flu intensity [5]: 13.96
- Activity (DNA [16]): inactive
- Flu intensity [6]: 2.75
- Activity (TOP2A promoter [17]): Active
- Activity (DNA [18]): inactive

SMILES: CN(C)CCCNC(=O)c1cc(NC(=O)c2nc(NC(=O)c3ccc4nc(-c5ccc(F)cc5)[nH]c4c3)cn2C)cn1C
- fold induction at 2 µM ([3]; Homo sapiens, A549, read-out: FC): 1.7
- inhibition (TOP2A promoter [19]): Active
- Flu intensity [4]: 15.01
- Activity (TOP2A promoter [20]): Active
- Flu intensity [5]: 6.08
- Flu intensity [6]: 1.12
- Activity (TOP2A promoter [17]): Active
- Drug uptake [21]: Active

SMILES: CN(C)CCCNC(=O)c1cc(NC(=O)c2nc(NC(=O)c3ccc4nc(-c5ccco5)[nH]c4c3)cn2C)cn1C
- inhibition (TOP2A promoter [22]): Active

SMILES: COc1ccc(-c2nc3ccc(C(=O)Nc4cn(C)c(C(=O)Nc5cc(C(=O)NCCCN(C)C)n(C)c5)n4)cc3[nH]2)cn1
- inhibition (TOP2A promoter [22]): Active

SMILES: CN(C)CCCNC(=O)c1cc(NC(=O)c2nc(NC(=O)c3ccc4nc(-c5cc6ccccc6o5)[nH]c4c3)cn2C)cn1C
- inhibition (TOP2A promoter [22]): Active
